Entries after “also recorded” stand apart in the source; their conditions may differ.
Experiments:
MMP-9 gene expression = experiment: Real-time RT-PCR in HSC, MMP-9; assay type: cell-based, human; settings: 0.625 μM, FIG. 10
Method: (§1) Human Hepatic Stellate cells (LX-2 cell line) (HSCs) were obtained from the Key Lab of Regenerative Medicine, Jinan University, Guangzhou, China, which were maintained in Dulbecco's Modified Eagle Medium (DMEM)+10% fetal calf serum and penicillin-streptomycin (100 unit/ml and 0.1 mg/ml, respectively), in 5% CO2 at 37° C. inside a humidified cell incubator. The culture medium was changed every three days. To test the effects of small molecule Hesperadin on the mouse and human HSCs, the cultures were treated with 0.625 μM of Hesperadin for 48 hrs. […] The proliferation of HSCs was also evaluated by the MTT staining assay with 3-(4,5-Dimethylthiazol-2-yl)-2,5-diphenyltetrazolium bromide). […] The absorbance (at 570 nm) was measured using a BIORAD 3550 Microplate Reader. […]
(§2) Collagen type-I, -III and -VI, MMP-2, MMP-9 and TIMP-1 gene expression was determined using quantitative real-time PCR. […] Quantitation of mRNA levels was performed using a SYBR® Premix Ex Taq™ Kit (Takara) in an Applied Biosystems 7900HT Fast Real-Time PCR System. To quantify the amount of specific mRNA in the samples, a standard curve was generated for each PCR run using four amounts of the cDNA synthesized from our HSC cultures and liver samples. […] Data was analyzed using a StatView software (Abacus Concepts Inc) with Student's t-test.

[1] = system: human liver stellate cells; experiment: Cell death assay (MTT assay) SAR screening of Hesperadin related derivatives; assay type: cell-based; settings: FIGS. 14A through 14T
[2] = system: Human Hepatic Stellate cells (LX-2 cell line); experiment: MTT analysis of HSC proliferation; assay type: cell-based; settings: serial dilutions, 48 hours
Method: (§3) Human Hepatic Stellate cells (LX-2 cell line) (HSCs) were obtained from the Key Lab of Regenerative Medicine, Jinan University, Guangzhou, China, which were maintained in Dulbecco's Modified Eagle Medium (DMEM)+10% fetal calf serum and penicillin-streptomycin (100 unit/ml and 0.1 mg/ml, respectively), in 5% CO2 at 37° C. inside a humidified cell incubator. The culture medium was changed every three days. To test the effects of small molecule Hesperadin on the mouse and human HSCs, the cultures were treated with 0.625 μM of Hesperadin for 48 hrs. The cultures were then fixed in ice cold 70% ethanol and incubated in phosphate buffered saline with RNase (0.25 mg/ml), Propidium iodide dye (40 μg/ml) and 0.1% Triton X for an hour at room temperature. For cell cycle analysis, the Propidium iodide stained cells were examined using a flow cytometer (“BD LSRFortessa Cell Analyzer”). The proliferation of HSCs was also evaluated by the MTT staining assay with 3-(4,5-Dimethylthiazol-2-yl)-2,5-diphenyltetrazolium bromide). HSCs were plated at 1×10^4 cells/ml and culture overnight. Hesperadin (in serial dilutions) was then added into the culture medium for 48 hours. This was followed by addition of MTT (250 μg/ml) for a further 4 hours. The medium was eluted and the formazan crystal was dissolved in 100 μL of DMSO. The absorbance (at 570 nm) was measured using a BIORAD 3550 Microplate Reader. […]

human HSC (LX-2) cells = experiment: Cell cycle analysis by flow cytometry (propidium iodide); assay type: cell-based; settings: 0.625 μM, vs control cultures
Method: as §3

collagen type III = experiment: Immunofluorescent staining of HSC cultures, collagen type III; assay type: cell-based, human; settings: 0.625 μM, 24-48 hours
Method: (§4) Human Hepatic Stellate cells (LX-2 cell line) (HSCs) were obtained from the Key Lab of Regenerative Medicine, Jinan University, Guangzhou, China, which were maintained in Dulbecco's Modified Eagle Medium (DMEM)+10% fetal calf serum and penicillin-streptomycin (100 unit/ml and 0.1 mg/ml, respectively), in 5% CO2 at 37° C. inside a humidified cell incubator. The culture medium was changed every three days. To test the effects of small molecule Hesperadin on the mouse and human HSCs, the cultures were treated with 0.625 μM of Hesperadin for 48 hrs. The cultures were then fixed in ice cold 70% ethanol and incubated in phosphate buffered saline with RNase (0.25 mg/ml), Propidium iodide dye (40 μg/ml) and 0.1% Triton X for an hour at room temperature. For cell cycle analysis, the Propidium iodide stained cells were examined using a flow cytometer (“BD LSRFortessa Cell Analyzer”). The proliferation of HSCs was also evaluated by the MTT staining assay with 3-(4,5-Dimethylthiazol-2-yl)-2,5-diphenyltetrazolium bromide). […] The absorbance (at 570 nm) was measured using a BIORAD 3550 Microplate Reader. […] After washing, the sections were viewed and recorded using a FluoView FV1000 Confocal microscope and/or a Nikon i80 microscope respectively to identify the presence of HSC expressing collagens. The positive staining of Collagen types I, III and IV was analyzed with the Metamorph software.

collagen type I = experiment: Immunofluorescent staining of HSC cultures, collagen type I; assay type: cell-based, human; settings: 0.625 μM, 24-48 hours
Method: as §4

Mammalian cells = settings: cited from earlier work
TIMP-1 gene expression = experiment: Real-time RT-PCR in HSC, TIMP-1; assay type: cell-based, human; settings: 0.625 μM, FIG. 11
Method: as §1, §2

For `CCS(=O)(=O)Nc1ccc2c(c1)/C(=C(/Nc1ccc(CN3CCCCC3)cc1)c1ccccc1)C(=O)N2` [Hesperadin, (Z)—N-(2-oxo-3-(Phenyl(4-(piperidin-1-ylmethyl)phenylamino)methylene)indolin-5-yl)ethanesulfonamide], the “MMP-9 mRNA expression” value (MMP-9 gene expression) was “inhibited”, the “percentage of inhibition, cell death assay (MTT), relative potency” value [1] was “most potent derivative” and the “HSC proliferation (MTT, optical density)” value [2] was “inhibited HSC proliferation in a dose dependent manner; also recorded: suppressed HSC proliferation in a dose-dependent manner”. For the same compound, the “cell-cycle progression of HSCs” value (human HSC (LX-2) cells) was “significantly more HSCs in the G2-M phase; also recorded: appeared to block cytokinesis”, the “collagen type III expression (immunofluorescence)” value (collagen type III) was “significantly inhibited; also recorded: inhibits the synthesis of collagen type III” and the “collagen type I expression (immunofluorescence)” value (collagen type I) was “significantly inhibited; also recorded: inhibits the synthesis of collagen type I”. For the same compound, the “time to enter anaphase” value (Mammalian cells; cells arrested by taxol or monastrol) was under 1 h, the “time cells stayed arrested” value (Mammalian cells; cells in nocodazole) was 3 to 5 h and the “effect on nuclear division and cytokinesis” value (Mammalian cells) was “blocks nuclear division and cytokinesis”. For the same compound, the “TIMP-1 mRNA expression” value (TIMP-1 gene expression) was “inhibited”.
